Assay results reported in a melting point compilation (Tetko et al.; mined from patent text by program, amines drawn as free bases though some values may be those of a salt).

Compared with `COc1cc2ncnc(N3CCc4c(C)cccc43)c2cc1OC`, `CCCc1nn(C)c2c(=O)[nH]c(-c3ccc(OC)c(OC)c3)nc12` is higher in melting point: 174 to 175 °C for the first, 210 to 212 °C for the second.

First: CCCCCS(=O)(=O)NC(=O)CCCc1cc(OCCCC)nn1Cc1ccc(Cl)cc1Cl
Second: CCCCCCCCCCCCNC(=O)n1nc(Oc2ncc(C(F)(F)F)cc2Cl)c(Cl)c1C
The melting point of the first is higher: 121 to 122 °C for the first, 68 to 70 °C for the second.

First: CCCCCCCCCCOCc1ccc(CO)cc1
Second: CCCCCCCCCCCC(=O)N(N=C=S)C(CCCCN)C(=O)O (configuration not stated)
The melting point of the first is lower: 20 to 31 °C for the first, 37 to 39 °C for the second.

First: Cc1cn2nc(SCc3ccccc3)nc2nc1Cl
Second: Clc1ncc(Br)n2nc(SCc3ccccc3)nc12
The melting point of the first is higher: 179 to 181 °C for the first, 109 to 110 °C for the second.

First: CN(C)C=Nc1nc(Cl)c2[nH]cnc2n1
Second: Cc1nc(C(Cl)(Cl)Cl)nc(O)c1Cl
The melting point of the first is higher: 300 °C for the first, 130 to 145 °C for the second.

First: C=C(C)C(=O)NCCCNC(=O)OC(C)(C)C
Second: CCC(C)(C)OC(=O)NC(C)(Cc1c[nH]c2ccccc12)C(=O)NCCCCc1ccccc1 (configuration not stated)
The melting point of the first is lower: 85.8 °C for the first, 127 to 130 °C for the second.

First: CCOC(=O)CC(O)(CC)c1cc2n(c(=O)c1CO)Cc1cc3ccccc3nc1-2 (configuration not stated)
Second: CCc1ccc2[nH]c3c(=O)n(CCN(C)C)c4ccccc4c3c2c1
The melting point of the first is lower: 157 to 161 °C for the first, 266 to 268 °C for the second.

First: O=C(O)c1cnn2c(C(F)F)cc(-c3ccc(C(F)(F)F)c(Cl)c3)nc12
Second: Nc1cc(C=O)nc(-c2ccc(C(F)(F)F)nc2)c1F
The melting point of the first is higher: 216 °C for the first, 166 to 167 °C for the second.

Compared with `O=CC(=Cc1cccc(Cl)c1)C(C=O)=Cc1cccc(Cl)c1`, `O=C(Oc1ccc(Cl)cc1)c1cccc(Cl)c1` is lower in melting point: 107 to 108 °C for the first, 72 °C for the second.

First: OCc1cn(Cc2ccc3cc(OCc4ccccc4)ccc3c2)cc1-c1ccccc1
Second: Cc1sc(-c2ccccc2)nc1COc1ccc(C=O)cc1
The melting point of the first is lower: 116 to 117 °C for the first, 118 to 119 °C for the second.

First: Cc1ccc(-n2nc3c(cc2=O)CCCc2sc(C=O)cc2-3)cc1
Second: CCn1nc(-c2ccc(OC)c(F)c2)c(-c2ccc(OC)c(F)c2)cc1=O
The melting point of the first is lower: 127 to 129 °C for the first, 178 °C for the second.

Compared with `CCCCC(CC)c1nc2cc(Cl)c(C#N)c(C)n2n1` (configuration not stated), `CCCc1c(OCCC(C)Br)ccc(C(C)=O)c1O` (configuration not stated) is lower in melting point: 95 to 96 °C for the first, 53 to 55 °C for the second.

First: CC(C)n1cc(-c2ccc(Oc3ccccc3)cc2)c2c(N)ncnc21
Second: CC(C)c1ccc(-c2nc3ccc(OC(F)(F)F)cc3[nH]2)cc1
The melting point of the first is lower: 155 to 156 °C for the first, 203 to 205 °C for the second.

First: COc1ccccc1CNc1ccc2cc(Nc3ccccn3)ccc2n1
Second: O=C(Nc1ccc(C(=O)c2ccccc2)cc1)c1cc(Cl)cc(Cl)c1
The melting point of the first is lower: 134 °C for the first, 219 to 220 °C for the second.

First: N#Cc1cnn2c1NCC=C2c1ccc(Cl)cc1
Second: c1cnc2[nH]c(-c3ccc(C4OCCCO4)cc3)cc2n1
The melting point of the first is lower: 208 to 209 °C for the first, 288 to 289 °C for the second.

Compared with `COC(C)=C(C(=O)OC(c1ccccc1)c1ccccc1)N1C(=O)C(NC(=O)C(NC(=O)OC(C)(C)C)c2ccccc2)C1SS(=O)(=O)c1ccc(C)cc1` (configuration not stated), `O=C(N[C@H]1CN(C(=O)NS(=O)(=O)N2CCN(NC(=O)OCc3ccccc3)C2=O)C1=O)OCc1ccccc1` is lower in melting point: 204 to 206 °C for the first, 75.7 to 116 °C for the second.

`CCCNC(=O)C(C)Cc1ccc2c(c1)c(Cc1ccc(C(=O)NS(=O)(=O)c3ccccc3C)cc1OC)cn2CCC(=O)N(C)C` (configuration not stated) and `CCCc1c(OCc2cccc(C(=O)NCCCCc3cccnc3)c2)ccc(C(C)=O)c1O` cannot be ordered by melting point: 120 to 132 °C for the first, 120 to 123 °C for the second.

First: CN1CC=C(c2c[nH]c3ccc(O)cc23)CC1
Second: O=c1[nH]c2cc(O)ccc2c2oc3ccccc3c12
The melting point of the first is lower: 182 to 185 °C for the first, over 300 °C for the second.

Compared with `COC(=O)c1nn(-c2cccc(NC(C)=O)c2)c(=O)n(Cc2ccc(Cl)cc2)c1=O`, `COc1ccc(-c2cc(COS(C)(=O)=O)c(=O)n(Cc3ccc(Cl)cc3)n2)cc1F` is lower in melting point: 193 °C for the first, 156 to 157 °C for the second.

First: CCCCCCC(C(=O)O)c1ccc(NC(=O)C2(O)c3ccccc3-c3ccccc32)cc1 (configuration not stated)
Second: O=C(NNc1ccc(NC(=S)Nc2ccccc2)cc1)C(F)(F)F
The melting point of the first is higher: 183 to 185 °C for the first, 172 to 174 °C for the second.

First: CCCNC(=O)c1cccnc1Oc1cccnc1
Second: c1cncc(Nn2ccc3ccccc32)c1
The melting point of the first is lower: 55 to 56 °C for the first, 127 to 128 °C for the second.

First: CC(C)c1ccc(O)c(C(C)C)c1NC(=O)CN1CCN(CCSc2nc3cccc(C(F)(F)F)c3o2)CC1
Second: Cc1cccc(C(=O)Nc2ccc(N3CCN(Cc4cccc(C#N)c4)CC3)cc2)c1-c1ccc(C(F)(F)F)cc1
The melting point of the first is lower: 82 to 84 °C for the first, 192 °C for the second.

First: CCCCCCCCCCOCC(COCCCCCCCCCC)(CC(=O)O)CC(=O)O
Second: NC(C=C(CCCCO)CP(=O)(O)O)C(=O)O (configuration not stated)
The melting point of the first is lower: 68 to 71 °C for the first, 152 to 155 °C for the second.

First: CCC(CC)(CO)NC(=S)NC(=O)c1ccccc1
Second: CCN(CCC(=O)O)C(=S)Nc1c(C)cccc1C
The melting point of the first is higher: 161 to 163 °C for the first, 115 to 118 °C for the second.

First: CCSC1=NCC(=O)N1c1ccccc1
Second: CC(=O)NC1(c2ccccc2)CC1
The melting point of the first is lower: 79 to 81 °C for the first, 94 to 95 °C for the second.

First: C=CCCC(C#N)(C#N)Cc1ccc(OC(F)(F)Br)cc1
Second: O=Cc1c[nH]c2c1ccc1c3cc(-c4ccc(OC(F)(F)F)cc4)ccc3[nH]c12
The melting point of the first is lower: 50.2 °C for the first, over 250 °C for the second.

Compared with `CC(=O)NC1=CC(C)(C)Oc2ccc(C#N)cc21`, `CC(C)(C)c1ccc(NC(=O)c2ccc(C#N)cc2)cc1` is higher in melting point: 146 to 147 °C for the first, 210 to 211 °C for the second.

First: CC#CCOc1ccc(S(=O)(=O)N(C)[C@H]2CCC[C@H]2C(=O)NO)cc1
Second: O=C(O)CC1CCCCC1Oc1ccc(C(=O)c2ccc(Cl)cc2)cc1 (configuration not stated)
The melting point of the first is higher: 160 to 164 °C for the first, 130 to 132 °C for the second.

Compared with `CN1CC(O)N(c2cc(C(C)(C)C)on2)C1=O` (configuration not stated), `Cc1cc(N2CCCC(O)C2)c(S(C)(=O)=O)cc1C(=O)N=C(N)N` (configuration not stated) is higher in melting point: 173 to 177 °C for the first, 194 to 196 °C for the second.

First: COC(=O)c1cc(Br)c(O)c(O)c1Cl
Second: CCOC(=O)c1sc2ccc(Cl)cc2c1CBr
The melting point of the first is lower: 103 °C for the first, 148 to 150 °C for the second.

First: COC(=O)c1ccc(C#CC(=O)c2ccc3c(c2)C(C)(C)CCC3)cc1O
Second: CCOC(=O)C1=C2CCCN2C(C)=C(C(=O)OC)C1c1cccc([N+](=O)[O-])c1 (configuration not stated)
The melting point of the first is lower: 114 to 116 °C for the first, 120 °C for the second.

First: N#CC(N)=C(C#N)N=C1c2ccccc2-c2ccccc21
Second: COC1C=Cc2ccccc2C1(Nc1ccccc1C)C(N)=S (configuration not stated)
The melting point of the first is lower: 156 to 157 °C for the first, 162 °C for the second.

First: CC(=O)C1=C(O)C(=C(C)Nc2ccc(F)cc2)C(=O)OC1=O
Second: CCn1cc(C(=O)O)c(=O)c2ccc(C=NNc3ccc(O)cc3)nc21
The melting point of the first is lower: 199 to 201 °C for the first, 300 °C for the second.

First: CN(C)c1ccc([N+](=O)[O-])c(CN)c1
Second: NNc1cccc(F)c1[N+](=O)[O-]
The melting point of the first is higher: 97 to 98 °C for the first, 93 to 95 °C for the second.

First: CCCC(=O)NCC1Cc2ccc(-c3ccc(=O)[nH]n3)cc2C1 (configuration not stated)
Second: CCOC(=O)c1ccc(COc2cccc3oc(C)cc23)cc1
The melting point of the first is higher: 204 to 205 °C for the first, 59 to 61 °C for the second.

First: CCCCC1=C([N+](=O)[O-])C(c2cccc(Cl)c2Cl)c2c[nH]nc2N1 (configuration not stated)
Second: O=C(Cc1c(F)c(F)nc(F)c1Cl)OCc1ccccc1
The melting point of the first is higher: 220 °C for the first, 87 to 92 °C for the second.

First: CC(C)Oc1ccccc1C1(N)C(=O)Nc2ccc(Cl)cc21 (configuration not stated)
Second: CCOCc1cc2ccccc2oc1=Nc1ccc(Cl)cc1
The melting point of the first is higher: 193 °C for the first, 84 to 86 °C for the second.

First: COc1ccc(NC(=O)c2ccc(-c3ccncc3)s2)cc1N1CCN(C)CC1
Second: CC(C)CC(=O)Nc1ccc(-c2ccnc3c(C(=O)c4cccs4)cnn23)s1
The melting point of the first is lower: 191 to 194 °C for the first, 268 to 270 °C for the second.

First: O=C(Cc1ccc(F)cc1)N1CCN(Cc2ccccc2)CC1
Second: O=C(N1CCC(O)(c2ccccc2)CC1)C(F)(F)F
The melting point of the first is lower: 99 to 101 °C for the first, 123 to 125 °C for the second.

Compared with `COc1cc(C(=O)Cl)ccc1OCCCCl`, `COc1ccccc1OCCOS(C)(=O)=O` is higher in melting point: 60 to 63 °C for the first, 73 to 76 °C for the second.

First: Cc1nc2c(OCc3cc(N(C)S(C)(=O)=O)ccc3Cl)cccn2c1Br
Second: Cc1noc(NS(=O)(=O)c2ccccc2-c2ccc(-c3ncco3)cc2CN2CCN(C)C2=O)c1C
The melting point of the first is higher: 158 to 162 °C for the first, 105 to 115 °C for the second.

First: CC(C)C(NC=O)C(=O)O (configuration not stated)
Second: CC(C)C1CC(=O)C(C(=O)NS(=O)(=O)c2ccccc2)C(=O)C1 (configuration not stated)
The melting point of the first is higher: 143 to 145 °C for the first, 112 to 114 °C for the second.

Compared with `Cc1ccccc1NC(=NC#N)NC(NC(=O)Cc1ccc(Cl)cc1)C(C)(C)C` (configuration not stated), `CC1=NC(NC(=O)Nc2cccc(C)c2)C(=O)N(CC(=O)N2CCCCCC2)c2c(C)cccc21` (configuration not stated) is higher in melting point: 181 to 182 °C for the first, 204 °C for the second.

First: NC1=NN(c2ccc3ccccc3c2)CC1
Second: O=c1[nH]c(COCc2ccccc2)nc2nccnc12
The melting point of the first is higher: 190 to 191 °C for the first, 157 to 159 °C for the second.

First: CCCCCC(C)C(C)c1cc(O)c2c3c(c(=O)oc2c1)SCCC3 (configuration not stated)
Second: Cc1c(C)c2c(c(C)c1OC=O)SC(CCCI)O2 (configuration not stated)
The melting point of the first is higher: 131 to 133 °C for the first, 91 to 93 °C for the second.

First: CC1Nc2ccc(-c3cc(F)cc(C#N)c3)cc2C(C)(C)O1 (configuration not stated)
Second: c1ccc2c(c1)c1nncn1c1c(-c3noc(C4CC4)n3)ncn21
The melting point of the first is lower: 163 to 164 °C for the first, 308 to 314 °C for the second.

First: Fc1cccc(F)c1C1=NC(c2ccc(OCc3ccc(Cl)cc3Cl)cc2)CO1 (configuration not stated)
Second: C#Cc1ccc2c(C(=O)c3ccc(OCCN4CCCCC4)cc3)c(-c3ccc(O)cc3)sc2c1
The melting point of the first is higher: 104 °C for the first, 97 to 100 °C for the second.

Compared with `CCOc1cc(C2COCCC2NC(=O)c2ccc(C(=O)N(C(C)C)C(C)C)cc2)ccc1OC` (configuration not stated), `NC(=O)c1cccc(NS(=O)(=O)c2cc(S(=O)(=O)Nc3cccc(C(N)=O)c3)c3cc(O)ccc3c2)c1` is higher in melting point: 166 to 168 °C for the first, 169 to 171 °C for the second.

First: CN(C)c1ccc(C2(c3ccc(N(C)C)cc3N(C)C)OC(=O)c3c(Cl)c(Cl)c(Cl)c(Cl)c32)c(N(C)C)c1
Second: CCn1cc(C(=O)O)c(=O)c2cc(F)c(N3CCN(S(=O)(=O)c4ccc(N)cc4)CC3)cc21
The melting point of the first is lower: 195 to 197 °C for the first, 283 to 284 °C for the second.

Compared with `CNC1CCN(c2ncc(C(F)(F)F)s2)C1=O` (configuration not stated), `CSc1sc(S(C)(=O)=O)cc1C#N` is higher in melting point: 108 to 109 °C for the first, 126 to 128 °C for the second.

Going from `CC(=O)Nc1ccc2nc(NC3=NCCN3)[nH]c2c1` to `CCC(=O)OCC(=O)C1(OC(=O)CC)CCC2C3CC(C)C4=CC(=O)C=CC4(C)C3C(O)CC21C` (configuration not stated), the melting point falls from 294 °C to 126 °C.
